Laboratory results reported in US12576070B2, “Medicine for improving state of pregnancy, and use thereof” (priority 2014, dated 2026).

Test system: patient with a past history of both eclampsia and HELLP syndrome
Assay: Tacrolimus monotherapy in a patient with past history of eclampsia and HELLP syndrome (Example 4)
Format: in vivo, human
Settings: for ALT (U/L) / AST (U/L) / Cr / Hb / LDH (U/L) / Plt (10^4/uL) / WBC: blood examination, with tacrolimus treatment
Source text: The patient was a person (y.o.) […] with a past history of both eclampsia and HELLP syndrome. During the first pregnancy when the patient was […], they complained of physical deconditioning from early in their pregnancy. […] Sudden aggravation of the edema, proteinuria and hypertension appeared at 18 weeks gestation, at which time they were diagnosed with preeclampsia. HELLP syndrome and eclampsia occurred at 20 weeks gestation and a stillbirth required an emergency cesarean section. After delivery of the baby, they had severe complications such as pulmonary edema, disseminated intravascular coagulation, and intraperitoneal bleeding. They were medicated via an artificial respirator, and received albumin and a blood transfusion (Table 6). […] Laboratory findings related to infertility such as antiphospholipid syndrome (anti-CL IgG Ab, anti-CL IgM Ab, anti-β2GP-1 Ab, anti-PS/PT Ab, anti-PE IgG Ab, anti-PE IgM Ab), autoimmune disease (ANA and anti-DNA Ab), and disorders of blood coagulation (protein S activity, protein C activity, factor XII activity) were all negative. Although no obvious immunological abnormalities of the Th1(CD4^+IFN-γ+)/Th2 (CD4+IL-4^+) cell ratio (15.2/2.1) in CD4 positive cells (normal range, <10.3) were observed before pregnancy^46, it was assumed that maternal immunity would be activated by the embedding of a fertilized ovum (recognition of fetal antigens) and the abnormalities of maternal-fetal immunity may have inhibited placenta construction and caused fetal growth retardation and hypertension. The patient was treated with 1 mg/day of tacrolimus to control the maternal-fetal immunity. This patient received a monotherapy of tacrolimus without a concomitant treatment of a low dose of aspirin, which is often used as an anti-platelet agent for HDP^47. The course of the pregnancy was stable until the 3rd trimester, and no significant symptoms were observed during the 2nd trimester, at which point HELLP syndrome occurred in their previous pregnancy. Clinical signs of HELLP syndrome rapidly appeared, however, at 33 weeks gestation. A decrease in the Th1 and Th2 cell populations in CD4 positive cells and a reduction in the activity of NK cells over time post-partum were observed, which confirms that the tacrolimus regimen exerted sufficient suppressive effect on those cells, whereas the activity of NK cells was elevated at 32 weeks gestation. A possibility was speculated that NK cell activity was stimulated when a large number of fetal antigens were transferred to the maternal blood circulation after the suppression of the NK cells by the 1 mg/day dose of tacrolimus became insufficient in the 3rd trimester. […] Th1 and Th2 cell populations in CD4 positive cells and the NK cell activity were measured to evaluate the patient's pathological condition. One of the parameters, NK cell activity, indicated an appearance of abnormal maternal-fetal immunity. Other parameters that can be used to evaluate the failure of maternal tolerance for a fetus and activation of maternal immune rejection against a fetus with inflammation include Treg cells, Th17 cells, cytokines, and chemokines^37-44.

[1] = Current pregnancy with tacrolimus treatment 1 mg/day
[2] = Current pregnancy with tacrolimus treatment 1 mg/day, after delivery
[3] = Current pregnancy with tacrolimus treatment 1 mg/day, before delivery

## C=CCC1/C=C(\C)CC(C)CC(OC)C2OC(O)(C(=O)C(=O)N3CCCCC3C(=O)OC(/C(C)=C/C3CCC(O)C(OC)C3)C(C)C(O)CC1=O)C(C)CC2OC (centres unmarked) [tacrolimus, 17-Allyl-1,14-dihydroxy-12-[2-(4-hydroxy-3-methoxycyclohexyl)-1-methylvinyl]-23,2 5-dimethoxy-13,19,21,27-tetramethyl-11,28-dioxa-4-azatricyclo[22.3.1.04,9]octacos-18-ene-2,3,10,16-tetraone]
[1]
  Fetal information: fetal growth: −1.9 SD
  start of proteinuria (weeks gstation): 33 weeks gstation
[2]
  Symptoms: edema: slight
  Symptoms: hypertension: transient
  complications after deliverly: none
[3]
  Symptoms: edema: slight
  Symptoms: hypertension: not observed
After delivery
  ALT (U/L): 833 U/L
  AST (U/L): 898 U/L
  Cr: 0.59 mg/dL
  Hb: 10.5 g/dL
  LDH (U/L): 1995 U/L
  Plt (10^4/uL): 2.2 10^4/uL
  WBC: 8220 cells/µL
Before delivery
  ALT (U/L): 71 U/L
  AST (U/L): 65 U/L
  Cr: 1 mg/dL
  Hb: 11 g/dL
  LDH (U/L): 316 U/L
  Plt (10^4/uL): 10 10^4/uL
  WBC: 8280 cells/µL
During pregnancy, with time, tacrolimus 1 mg/day (FIG. 1)
  Th1 and Th2 cell populations in CD4 positive cells: decrease
During pregnancy, normal range 18-40%, tacrolimus 1 mg/day (FIG. 1)
  NK cell activity: decreased in the 2nd trimester and then obviously increased at 32 weeks gestation
Tacrolimus 1 mg/day monotherapy
  course of the pregnancy stable with no emergence of proteinuria, edema or hypertension until: 32 weeks gestation
Tacrolimus 1 mg/day monotherapy, previous pregnancy: 20 weeks gestation
  Clinical signs of HELLP syndrome appeared at: 33 weeks gestation
Tacrolimus 1 mg/day versus previous pregnancy without treatment
  prolonged the timing of onset of HELLP syndrome: about 13 weeks gestation
